In patent US20090304746A1 (priority 1993, published 2009):
No end group written: not given here.

Assays:
HLA-B*5301 = HLA-B*5301 (Homo sapiens, UniProt P01889, A329T/A93T/A95T/C349S/D201E/D98Y/E176V/E187L/E204Q/E69T/G107R/I218V/K202T/L105A/L119I/N104I/Q94N/R106L/R155S/R180L/S101N/S121R/S35A/S48A/T118I/V127L/V306I/V36M/Y140S/Y91F); test: HLA class I binding assay, B*5301
HLA-B*3501 = HLA-B*3501 (Homo sapiens, UniProt P01889, A329T/A93T/A95T/C349S/D201E/D98Y/E176V/E187L/E204Q/E69T/I218V/K202T/L119I/Q94N/R155S/R180L/S121R/S35A/S48A/T118I/V127L/V306I/V36M/Y140S/Y91F); test: HLA class I binding assay, B*3501
[1] = test system: PBMC from HCV-infected patients; test: CTL recall: recognition in vitro by PBMC from HCV-infected patients, 51Cr release; format: cell-based, human
DRB1*0301 (DR3) = molecular target: T1, DRB1*0301 (DR3) (Homo sapiens, UniProt P01903+P01911, A100K/A102G/A103R/A169T/F55Y/I96L/K41T/L162R/M171V/P40S/Q125H/Q178H/Q39Y/R42S/S66N/T106N/T262R/W38E/Y61H); test: HLA class II binding assay, DRB1*0301 (DR3); conditions: DR3 binding affinity, DR3 motif peptides
T1 construct: endogenous in cells; host or cells: MAT

[2] = A3-supertype binders, positive responses over total number examined
[3] = A3-supertype binders, positive responses over total number of contacts examined
[4] = A3-supertype binders, positive responses over total number of patients examined
[5] = A3-supertype binders, sum over all groups, positive over total examined
[6] = sum over the four human data sets

Row | Compound | IC50 (HLA-B*5301) | IC50 (HLA-B*3501) | Immunogenicity Human, Chisari [1, 2] | Immunogenicity Human, Pape [1, 2] | Immunogenicity Human, Barnaba; contacts [1, 3] | Immunogenicity Human, Barnaba; patients [1, 4] | Immunogenicity Human, overall [1, 5] | Immunogenicity Human, Barnaba; patients ([1]; responders/tested) | Immunogenicity Human, Chisari ([1]; responders/tested) | Immunogenicity Human, Pape ([1]; responders/tested) | Immunogenicity Human, Barnaba; contacts ([1]; responders/tested, contacts) | Immunogenicity Human, overall [1, 6] | IC50 (DRB1*0301 (DR3))
1 | CC[C@H](C)[C@H](NC(=O)[C@H](CCSC)NC(=O)[C@H](CCCNC(=N)N)NC(=O)[C@H](C)NC(=O)[C@H](Cc1c[nH]c2ccccc12)NC(=O)[C@H](CC(C)C)NC(=O)[C@@H](NC(=O)[C@@H]1CCCN1C(=O)[C@H](C)N)[C@@H](C)O)C(=O)N[C@@H](CC(C)C)C(=O)N[C@@H](CCSC)C(=O)O [Peptide 29.0118] | > 30 µM | > 30 µM | – | – | – | – | – | – | – | – | – | – | –
2 | CC(C)C[C@H](NC(=O)[C@H](C)NC(=O)CNC(=O)[C@H](C)NC(=O)[C@@H](NC(=O)CN)C(C)C)C(=O)N[C@H](C(=O)N[C@@H](C)C(=O)N[C@@H](Cc1ccccc1)C(=O)N[C@@H](CCCCN)C(=O)O)C(C)C [Peptide 1073.10] | – | – | 6/12 | 2/6 | 0/4 | 3/16 | 11/38 | 3/16 | 6/12 | 2/6 | 0/4 | 11/38 | –
3 | CC[C@H](C)[C@H](NC(=O)[C@H](Cc1ccc(O)cc1)NC(=O)[C@@H]1CCCN1C(=O)[C@@H](N)CC(C)C)C(=O)N[C@@H](CCC(=O)O)C(=O)N[C@@H](CCC(N)=O)C(=O)NCC(=O)N[C@@H](CCSC)C(=O)O [Peptide 29.0042] | > 30 µM | > 30 µM | – | – | – | – | – | – | – | – | – | – | –
4 | CSCC[C@H](NC(=O)[C@@H](N)CCCNC(=N)N)C(=O)N[C@@H](Cc1ccc(O)cc1)C(=O)N[C@H](C(=O)NCC(=O)NCC(=O)N[C@H](C(=O)N[C@@H](CCC(=O)O)C(=O)N[C@@H](Cc1c[nH]cn1)C(=O)N[C@@H](CCCNC(=N)N)C(=O)O)C(C)C)C(C)C [Peptide 1073.13] | – | – | 4/12 | 1/6 | 1/4 | 5/16 | 11/38 | 5/16 | 4/12 | 1/6 | 1/4 | 11/38 | –
5 | CC(C)C[C@H](NC(=O)[C@@H](N)CCCNC(=N)N)C(=O)NCC(=O)N[C@H](C(=O)N[C@@H](CCCNC(=N)N)C(=O)N[C@@H](C)C(=O)N[C@H](C(=O)N[C@@H](CCCNC(=N)N)C(=O)N[C@@H](CCCCN)C(=O)O)[C@@H](C)O)C(C)C [Peptide 1073.11] | – | – | 7/12 | 1/6 | 1/4 | 4/16 | 13/38 | 4/16 | 7/12 | 1/6 | 1/4 | 13/38 | –
6 | CSCC[C@H](NC(=O)[C@H](CCCNC(=N)N)NC(=O)[C@H](C)NC(=O)[C@H](Cc1c[nH]c2ccccc12)NC(=O)[C@H](CC(C)C)NC(=O)[C@@H](NC(=O)[C@@H]1CCCN1C(=O)[C@H](C)N)[C@@H](C)O)C(=O)O [Peptide 29.0031] | > 30 µM | > 30 µM | – | – | – | – | – | – | – | – | – | – | –
7 | CC[C@H](C)[C@H](N)C(=O)N1CCC[C@H]1C(=O)N[C@@H](Cc1ccccc1)C(=O)N[C@@H](Cc1ccc(O)cc1)C(=O)NCC(=O)N[C@@H](CCCCN)C(=O)N[C@@H](C)C(=O)N[C@H](C(=O)O)[C@@H](C)CC [29.0035/1260.04] | > 30 µM | > 30 µM | – | – | – | – | – | – | – | – | – | – | –
8 | CC[C@H](C)[C@H](NC(=O)[C@@H](N)CC(C)C)C(=O)N[C@@H](Cc1ccccc1)C(=O)N[C@@H](CS)C(=O)N[C@@H](Cc1c[nH]cn1)C(=O)N[C@@H](CO)C(=O)N[C@@H](CCCCN)C(=O)N[C@@H](CCCCN)C(=O)N[C@@H](CCCCN)C(=O)O [Peptide 1.0123] | – | – | 4/12 | 2/6 | 1/4 | 6/16 | 13/38 | 6/16 | 4/12 | 2/6 | 1/4 | 13/38 | –
9 | C[C@@H](O)[C@H](NC(=O)[C@@H](N)CCCCN)C(=O)N[C@@H](CO)C(=O)N[C@@H](CCC(=O)O)C(=O)N[C@@H](CCCNC(=N)N)C(=O)N[C@@H](CO)C(=O)N[C@@H](CCC(N)=O)C(=O)N1CCC[C@H]1C(=O)N[C@@H](CCCNC(=N)N)C(=O)O [Peptide 1.0952] | – | – | 3/12 | 0/6 | 1/4 | 2/16 | 6/38 | 2/16 | 3/12 | 0/6 | 1/4 | 6/38 | –
10 | CC(C)C[C@H](NC(=O)[C@H](CCCNC(=N)N)NC(=O)[C@@H]1CCCN1C(=O)CNC(=O)[C@H](CCCNC(=N)N)NC(=O)[C@H](CCCNC(=N)N)NC(=O)[C@@H]1CCCN1C(=O)[C@@H](N)CC(C)C)C(=O)O [Peptide 29.0040] | > 30 µM | > 30 µM | – | – | – | – | – | – | – | – | – | – | –
11 | CC(C)C[C@H](NC(=O)[C@H](C)NC(=O)CNC(=O)[C@H](C)NC(=O)[C@@H](N)C(C)C)C(=O)N[C@H](C(=O)N[C@@H](C)C(=O)N[C@@H](Cc1ccccc1)C(=O)N[C@@H](CCCCN)C(=O)O)C(C)C [Peptide 24.0090] | – | – | 6/12 | 0/4 | 1/4 | 4/16 | 11/38 | 4/16 | 6/12 | 0/4 | 1/4 | 11/38 | –
12 | FPGCSFSIF [Peptide 1145.13] | 0.0032 µM | – | – | – | – | – | – | – | – | – | – | – | –
13 | CC(C)C[C@H](NC(=O)[C@@H](N)CCC(N)=O)C(=O)N[C@@H](Cc1ccccc1)C(=O)N[C@H](C(=O)N[C@@H](Cc1ccccc1)C(=O)N[C@@H](CO)C(=O)N1CCC[C@H]1C(=O)N[C@@H](CCCNC(=N)N)C(=O)N[C@@H](CCCNC(=N)N)C(=O)O)[C@@H](C)O [Peptide 1.0955] | – | – | 6/12 | 1/6 | 0/4 | 1/16 | 8/38 | 1/16 | 6/12 | 1/6 | 0/4 | 8/38 | –
14 | CC[C@H](C)[C@H](NC(=O)[C@H](CC(C)C)NC(=O)[C@H](CCCNC(=N)N)NC(=O)[C@H](C)NC(=O)[C@@H]1CCCN1C(=O)[C@@H](N)CCCCN)C(=O)N[C@H](C(=O)N[C@@H](Cc1ccccc1)C(=O)O)C(C)C [Peptide 29.0037] | > 30 µM | > 30 µM | – | – | – | – | – | – | – | – | – | – | –
15 | CSCC[C@H](NC(=O)[C@H](CC(C)C)NC(=O)[C@H](C)NC(=O)[C@H](CC(=O)O)NC(=O)[C@@H](NC(=O)[C@H](C)NC(=O)[C@@H](NC(=O)[C@@H](NC(=O)[C@@H](NC(=O)[C@@H](N)C(C)C)C(C)C)C(C)C)C(C)C)[C@@H](C)O)C(=O)N[C@H](C(=O)NCC(=O)N[C@@H](Cc1ccc(O)cc1)C(=O)N[C@H](C(=O)NCC(=O)O)[C@@H](C)O)[C@@H](C)O [CH35.0106] | – | – | – | – | – | – | – | – | – | – | – | – | ≤ 1 µM
